Measurements: patent US6706663B2, “Herbicidal 3-heterocyclic substituted benzisothiazole and benzisoxazole compounds” (Wyeth, priority 2000, dated 2004)

Tests used:
[1] = system: ECHORC (Echinochloa oryzoides); test: Flooded paddy, preemergence weed control; type: in vivo, Echinochloa oryzoides (Ard.) Fritsch.; conditions: rated 3-4 weeks after treatment, 0-9 rating scale
Outline: (§1)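 Visual 0–9 ratings versus controls scored stand, vigor, malformation, size, chlorosis and overall appearance. Plants grew from seeds or propagating organs sown 0.5 cm deep in silt loam, with water held 1.5–3 cm above the soil for the whole test under greenhouse care.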

ORYSAT (Rice, Tebonnet) [2] = test: Flooded paddy, post-transplant rice tolerance; type: in vivo, Oryza sativa, (L.) Tebonnet; conditions: flooded paddy, post-transplant rice, rated 3-4 weeks after treatment, 0-9 rating scale
Outline: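 Two ten-day-old seedlings were transplanted into silt loam, flooded and held at 1.5 to 3 cm water above the soil before herbicide treatment. Pots stayed in the greenhouse at that water level. Injury was scored visually on a 0-9 scale versus untreated control.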

[3] = system: TRZAWR (Wheat, Winter, cv Riband); test: Postemergence herbicidal evaluation; type: in vivo, Triticum aestivum; conditions: for TRZAWR herbicidal rating: postemergence
Outline: (§2)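 Seedlings grown about two weeks in flats, sprayed, then kept under standard greenhouse care. Rated visually 4–5 weeks after treatment on a 0–9 scale (stand, vigour, malformation, size, chlorosis, overall appearance) relative to untreated control; repeat tests averaged.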

[4] = system: IPOHE (Ipomoea hederacea); test: Postemergence herbicidal evaluation; type: in vivo, (L.) Jacq.; conditions: for IPOHE herbicidal rating: postemergence
Outline: as §2

[5] = system: ECHCG (Echinochloa crus-galli); test: Postemergence herbicidal evaluation; type: in vivo, (L.) Beau; conditions: for ECHCG herbicidal rating: postemergence
Outline: as §2

[6] = system: ABUTH (Abutilon theophrasti); test: Postemergence herbicidal evaluation; type: in vivo, Medic.; conditions: for ABUTH herbicidal rating: postemergence
Outline: as §2

[7] = system: AMBEL (Ambrosia artemisifolia); test: Postemergence herbicidal evaluation; type: in vivo, L.; conditions: for AMBEL herbicidal rating: postemergence
Outline: as §2

[8] = system: CHEAL (Chenopodium album); test: Postemergence herbicidal evaluation; type: in vivo, L.; conditions: for CHEAL herbicidal rating: postemergence
Outline: as §2

[9] = system: CASOB (Cassia obtusifolia); test: Postemergence herbicidal evaluation; type: in vivo, L.; conditions: for CASOB herbicidal rating: postemergence
Outline: as §2

[10] = system: SAGPY (Sagittaria pygmaea); test: Flooded paddy, preemergence weed control; type: in vivo, L.; conditions: rated 3-4 weeks after treatment, 0-9 rating scale
Outline: as §1

ORYSAT (Rice, Tebonnet) [11] = test: Postemergence herbicidal evaluation; type: in vivo, Oryza sativa, (L.) Tebonnet; conditions: for ORYSAT herbicidal rating: postemergence
Outline: as §2

[12] = system: AMBEL (Ambrosia artemisifolia); test: Preemergence herbicidal evaluation; type: in vivo, L.; conditions: rated 4-5 weeks after treatment
Outline: (§3)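 Scores (0–9) reflect visual comparison with control plants for stand, vigor, malformation, size and chlorosis. Seeds in potting soil received a post-planting spray of compound in aqueous acetone and grew in a greenhouse until assessment 4–5 weeks later.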

[13] = system: CHEAL (Chenopodium album); test: Preemergence herbicidal evaluation; type: in vivo, L.; conditions: rated 4-5 weeks after treatment
Outline: as §3

[14] = system: CASOB (Cassia obtusifolia); test: Preemergence herbicidal evaluation; type: in vivo, L.; conditions: rated 4-5 weeks after treatment
Outline: as §3

[15] = system: ABUTH (Abutilon theophrasti); test: Preemergence herbicidal evaluation; type: in vivo, Medic.; conditions: rated 4-5 weeks after treatment
[16] = system: CYPSE (Cyperus serotinus); test: Flooded paddy, preemergence weed control; type: in vivo, Rottb.; conditions: rated 3-4 weeks after treatment, 0-9 rating scale
Outline: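 Seeds or propagules were planted 0.5 cm deep in silt loam and flooded to 1.5–3 cm. Compounds in 50/50 v/v aqueous/acetone were pipetted into the flood water at about 0.0080 to 0.1250 kg/ha. After 3–4 weeks in the greenhouse, effect was rated visually on a 0–9 scale versus untreated control.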

ZEAMX (Corn, Field) = test: Postemergence herbicidal evaluation; type: in vivo, Zea mays, L.; conditions: for ZEAMX herbicidal rating: postemergence
Outline: as §2

[17] = system: TRZAWR (Wheat, Winter, cv Riband); test: Preemergence herbicidal evaluation; type: in vivo, Triticum aestivum; conditions: rated 4-5 weeks after treatment
Outline: as §3

ORYSAT (Rice, Tebonnet) [18] = test: Preemergence herbicidal evaluation; type: in vivo, Oryza sativa, (L.) Tebonnet; conditions: rated 4-5 weeks after treatment

SMILES: Cn1c(C(F)(F)F)cc(=O)n(-c2ccc3snc(C4OCCCS4)c3c2)c1=O (centres unmarked) [Compound 34, 1-methyl-3-[3-(1,3-oxathian-2-yl)-1,2-benzisothiazol-5-yl]-6-(trifluoromethyl)uracil]
- herbicidal rating, ECHORC ([1]; rate 0.0320 kg/ha): 9.0
- herbicidal rating, ECHORC ([1]; rate 0.0620 kg/ha): 8.0
- herbicidal rating, ECHORC ([1]; rate 0.1250 kg/ha): 9.0
- herbicidal rating, ORYSAT (rice tolerance) (ORYSAT (Rice, Tebonnet) [2]; rate 0.0080 kg/ha): 3.0
- herbicidal rating, ORYSAT (rice tolerance) (ORYSAT (Rice, Tebonnet) [2]; rate 0.0080 kg/ha, listed as 81): 5.0
- herbicidal rating, ORYSAT (rice tolerance) (ORYSAT (Rice, Tebonnet) [2]; rate 0.0320 kg/ha): 6.7
- herbicidal rating, ORYSAT (rice tolerance) (ORYSAT (Rice, Tebonnet) [2]; rate 0.0620 kg/ha): 8.5
- herbicidal rating, ORYSAT (rice tolerance) (ORYSAT (Rice, Tebonnet) [2]; rate 0.1250 kg/ha): 9.0
- herbicidal rating, ORYSAT (rice tolerance) (ORYSAT (Rice, Tebonnet) [2]; rate 0.1250 kg/ha, listed as 81): 8.0
- TRZAWR herbicidal rating ([3]; rate 0.0320 kg/ha): 4.0
- TRZAWR herbicidal rating ([3]; rate 0.0620 kg/ha): 6.5
- Postemergence herbicidal rating, TRZAWR ([3]; rate 0.0320 kg/ha): 5.5
- Postemergence herbicidal rating, TRZAWR ([3]; rate 0.0620 kg/ha): 5.5
- IPOHE herbicidal rating ([4]; rate 0.0320 kg/ha): 9.0
- IPOHE herbicidal rating ([4]; rate 0.0620 kg/ha): 9.0
- Postemergence herbicidal rating, IPOHE ([4]; rate 0.0320 kg/ha): 9.0
- Postemergence herbicidal rating, IPOHE ([4]; rate 0.0620 kg/ha): 9.0
- ECHCG herbicidal rating ([5]; rate 0.0320 kg/ha): 3.0
- ECHCG herbicidal rating ([5]; rate 0.0620 kg/ha): 4.0
- Postemergence herbicidal rating, ECHCG ([5]; rate 0.0320 kg/ha): 4.0
- Postemergence herbicidal rating, ECHCG ([5]; rate 0.0620 kg/ha): 6.0
- ABUTH herbicidal rating ([6]; rate 0.0320 kg/ha): 9.0
- ABUTH herbicidal rating ([6]; rate 0.0620 kg/ha): 9.0
- Postemergence herbicidal rating, ABUTH ([6]; rate 0.0320 kg/ha): 9.0
- Postemergence herbicidal rating, ABUTH ([6]; rate 0.0620 kg/ha): 9.0
- AMBEL herbicidal rating ([7]; rate 0.0320 kg/ha): 7.0
- AMBEL herbicidal rating ([7]; rate 0.0620 kg/ha): 9.0
- Postemergence herbicidal rating, AMBEL ([7]; rate 0.0320 kg/ha): 9.0
- Postemergence herbicidal rating, AMBEL ([7]; rate 0.0620 kg/ha): 9.0
- CHEAL herbicidal rating ([8]; rate 0.0320 kg/ha): 7.0
- CHEAL herbicidal rating ([8]; rate 0.0620 kg/ha): 9.0
- Postemergence herbicidal rating, CHEAL ([8]; rate 0.0320 kg/ha): 7.0
- Postemergence herbicidal rating, CHEAL ([8]; rate 0.0620 kg/ha): 9.0
- CASOB herbicidal rating ([9]; rate 0.0320 kg/ha): 6.0
- CASOB herbicidal rating ([9]; rate 0.0620 kg/ha): 6.0
- Postemergence herbicidal rating, CASOB ([9]; rate 0.0320 kg/ha): 9.0
- Postemergence herbicidal rating, CASOB ([9]; rate 0.0620 kg/ha): 9.0
- herbicidal rating, SAGPY ([10]; rate 0.0080 kg/ha): 0.0
- herbicidal rating, SAGPY ([10]; rate 0.0320 kg/ha): 4.7
- herbicidal rating, SAGPY ([10]; rate 0.0620 kg/ha): 3.5
- ORYSAT herbicidal rating (ORYSAT (Rice, Tebonnet) [11]; rate 0.0320 kg/ha): 5.5
- ORYSAT herbicidal rating (ORYSAT (Rice, Tebonnet) [11]; rate 0.0620 kg/ha): 6.5
- Postemergence herbicidal rating, ORYSAT (ORYSAT (Rice, Tebonnet) [11]; rate 0.0320 kg/ha): 7.0
- Postemergence herbicidal rating, ORYSAT (ORYSAT (Rice, Tebonnet) [11]; rate 0.0620 kg/ha): 7.0
- AMBEL preemergence herbicidal rating ([12]; Rate 0.0620 kg/ha): 9.0
- Preemergence herbicidal rating AMBEL ([12]; Rate 0.0620 kg/ha): 9.0
- AMBEL preemergence herbicidal rating ([12]; Rate 0.1250 kg/ha): 9.0
- Preemergence herbicidal rating AMBEL ([12]; Rate 0.1250 kg/ha): 9.0
- AMBEL preemergence herbicidal rating ([12]; Rate 0.2500 kg/ha): 9.0
- Preemergence herbicidal rating AMBEL ([12]; Rate 0.2500 kg/ha): 9.0
- CHEAL preemergence herbicidal rating ([13]; Rate 0.0620 kg/ha): 9.0
- Preemergence herbicidal rating CHEAL ([13]; Rate 0.0620 kg/ha): 9.0
- CHEAL preemergence herbicidal rating ([13]; Rate 0.1250 kg/ha): 9.0
- Preemergence herbicidal rating CHEAL ([13]; Rate 0.1250 kg/ha): 9.0
- CHEAL preemergence herbicidal rating ([13]; Rate 0.2500 kg/ha): 9.0
- Preemergence herbicidal rating CHEAL ([13]; Rate 0.2500 kg/ha): 9.0
- CASOB preemergence herbicidal rating ([14]; Rate 0.0620 kg/ha): 5.0
- Preemergence herbicidal rating CASOB ([14]; Rate 0.0620 kg/ha): 2.5
- CASOB preemergence herbicidal rating ([14]; Rate 0.1250 kg/ha): 9.0
- Preemergence herbicidal rating CASOB ([14]; Rate 0.1250 kg/ha): 3.0
- CASOB preemergence herbicidal rating ([14]; Rate 0.2500 kg/ha): 9.0
- Preemergence herbicidal rating CASOB ([14]; Rate 0.2500 kg/ha): 4.5
- ABUTH preemergence herbicidal rating ([15]; Rate 0.0620 kg/ha): 9.0
- Preemergence herbicidal rating ABUTH ([15]; Rate 0.0620 kg/ha): 9.0
- ABUTH preemergence herbicidal rating ([15]; Rate 0.1250 kg/ha): 9.0
- Preemergence herbicidal rating ABUTH ([15]; Rate 0.1250 kg/ha): 9.0
- ABUTH preemergence herbicidal rating ([15]; Rate 0.2500 kg/ha): 9.0
- Preemergence herbicidal rating ABUTH ([15]; Rate 0.2500 kg/ha): 9.0
- herbicidal rating, CYPSE ([16]; rate 0.0620 kg/ha): 9.0
- herbicidal rating, CYPSE ([16]; rate 0.1250 kg/ha): 9.0
- ZEAMX herbicidal rating (ZEAMX (Corn, Field); rate 0.0320 kg/ha): 5.0
- ZEAMX herbicidal rating (ZEAMX (Corn, Field); rate 0.0620 kg/ha): 7.0
- Postemergence herbicidal rating, ZEAMX (ZEAMX (Corn, Field); rate 0.0320 kg/ha): 6.0
- Postemergence herbicidal rating, ZEAMX (ZEAMX (Corn, Field); rate 0.0620 kg/ha): 7.0
- TRZAWR preemergence herbicidal rating ([17]; Rate 0.0620 kg/ha): 5.0
- Preemergence herbicidal rating TRZAWR ([17]; Rate 0.0620 kg/ha): 5.0
- TRZAWR preemergence herbicidal rating ([17]; Rate 0.1250 kg/ha): 7.0
- Preemergence herbicidal rating TRZAWR ([17]; Rate 0.1250 kg/ha): 5.0
- TRZAWR preemergence herbicidal rating ([17]; Rate 0.2500 kg/ha): 8.0
- Preemergence herbicidal rating TRZAWR ([17]; Rate 0.2500 kg/ha): 7.0
- ORYSAT preemergence herbicidal rating (ORYSAT (Rice, Tebonnet) [18]; Rate 0.0620 kg/ha): 5.5
- Preemergence herbicidal rating ORYSAT (ORYSAT (Rice, Tebonnet) [18]; Rate 0.0620 kg/ha): 3.0
- ORYSAT preemergence herbicidal rating (ORYSAT (Rice, Tebonnet) [18]; Rate 0.1250 kg/ha): 8.0
- Preemergence herbicidal rating ORYSAT (ORYSAT (Rice, Tebonnet) [18]; Rate 0.1250 kg/ha): 4.5
- ORYSAT preemergence herbicidal rating (ORYSAT (Rice, Tebonnet) [18]; Rate 0.2500 kg/ha): 9.0
- Preemergence herbicidal rating ORYSAT (ORYSAT (Rice, Tebonnet) [18]; Rate 0.2500 kg/ha): 5.5
